Experimental data published in article PMC10377643, “Exploration of Bis-Cinnamido-Polyamines as Intrinsic Antimicrobial Agents and Antibiotic Enhancers” (Biomolecules, 2023).
Values after ≈ are worked out from the molar mass of the structure shown.

What was measured:
S. aureus ATCC 25923 = assay: Antimicrobial MIC, S. aureus; type: cell-based; conditions: Staphylococcus aureus, ATCC25923, mean (n = 3)
Description: (§1) The susceptibility of bacterial strains S. aureus (ATCC 25923), E. coli (ATCC 25922) and P. aeruginosa (ATCC 27853) to antibiotics and compounds was determined using protocols reported previously. Additional antimicrobial evaluation against MRSA (ATCC 43300), Klebsiella pneumoniae (ATCC 700603), Acinetobacter baumannii (ATCC 19606), Candida albicans (ATCC 90028) and Cryptococcus neoformans (ATCC 208821) was undertaken at the Community for Open Antimicrobial Drug Discovery at The University of Queensland (Australia) according to their standard protocols reported previously.

P. aeruginosa ATCC 27853 [1] = assay: Antimicrobial MIC, P. aeruginosa; type: cell-based; conditions: Pseudomonas aeruginosa, ATCC27853, mean (n = 3)
Description: as §1

E. coli ATCC 25922 [2] = assay: Antimicrobial MIC, E. coli; type: cell-based, Escherichia coli; conditions: mean (n = 3)
Description: as §1

MRSA ATCC 43300 = assay: Antimicrobial MIC, MRSA (CO-ADD); type: cell-based, methicillin-resistant S. aureus; conditions: Staphylococcus aureus; MRSA ATCC 43300; mean (n = 2); read-out: MIC MRSA
Description: as §1

C. albicans ATCC 90028 = assay: Antifungal MIC, C. albicans (CO-ADD); type: cell-based; conditions: Candida albicans, ATCC90028, mean (n = 2)
Description: as §1

Cytotoxicity assay = type: cell-based, human; conditions: human, HEK293 human embryonic kidney cells, mean (n = 2), read-out: Cytotoxicity (IC50), concentration of compound at 50% cytotoxicity
Description: Cytotoxicity assays were conducted using the protocols previously reported.

human red blood cells = assay: Hemolytic assay; type: cell-based; conditions: mean (n = 2)
Description: Hemolysis assays were conducted using the protocols previously reported.

P. aeruginosa ATCC 27853 [3] = assay: Doxycycline enhancement against P. aeruginosa; type: cell-based, Pseudomonas aeruginosa; conditions: doxycycline fixed at 4.5 µM
Description: (§2) Antibiotic enhancer concentrations were determined using previously reported protocols.
We then evaluated the set of analogues for the ability to enhance the antibiotic activity of doxycycline against P. aeruginosa ATCC 27853 and of erythromycin against E. coli ATCC 25922 (Table 2). In the case of doxycycline, a fixed concentration of the antibiotic of 4.5 μM, which is twenty-fold lower than the intrinsic MIC 90 μM against this organism, was used. Each of the test compounds was then evaluated at a range of concentrations varying from 3.125 to 50–100 μM, with the upper concentration dependent upon the compounds intrinsic MIC towards P. aeruginosa (Table 1). […] While the observation of cytotoxicity/hemolytic properties of 16a–c, 14f and 13f reduces our interest in these analogues, analogues 13b and 13d were identified as non-toxic and strong enhancers of the action of doxycycline towards P. aeruginosa.

E. coli ATCC 25922 [4] = assay: Erythromycin enhancement against E. coli; type: cell-based, Escherichia coli; conditions: erythromycin fixed at 10.9 µM (8 µg/mL)
Description: as §2

[5] = system: C. neoformans ATCC 208821; assay: Antifungal MIC, C. neoformans (CO-ADD); type: cell-based; conditions: Cryptococcus neoformans, ATCC208821, mean (n = 2)
Description: as §1

[6] = Escherichia coli, ATCC25922, E. coli ATCC 25922

Row | Compound | MIC (S. aureus ATCC 25923) [µM] | MIC (P. aeruginosa ATCC 27853 [1]) [µM] | MIC (E. coli ATCC 25922 [2]; [6]) [µM] | MIC (MRSA ATCC 43300) [µM] | MIC (C. albicans ATCC 90028) [µM] | IC50 (Cytotoxicity assay) [µM] | Hemolysis (HC10), concentration of compound at 10% hemolytic activity (human red blood cells) [µM] | Dox/P. a: concentration required to restore doxycycline activity (P. aeruginosa ATCC 27853 [3]) [µM] | Dox/P. a: fold change (intrinsic MIC of test compound / combination MIC) (P. aeruginosa ATCC 27853 [3]) [fold] | Eryth/E. c: concentration required to restore erythromycin activity (E. coli ATCC 25922 [4]) [µM] | Eryth/E. c: fold change (intrinsic MIC of test compound / combination MIC) (E. coli ATCC 25922 [4]) [fold] | MIC [5] [µM] | MIC (E. coli ATCC 25922 [2]; E. coli ATCC 25922) [µM]
1 | [H]/N=C(/N)N[C@H]1[C@H](O)[C@@H](O)[C@H](O[C@@H]2O[C@@H](C)[C@](O)(C=O)[C@H]2O[C@@H]2O[C@@H](CO)[C@H](O)[C@@H](O)[C@@H]2NC)[C@@H](N/C(N)=N\[H])[C@@H]1O [streptomycin, reference compound] | 21.5 (≈ 12.5 µg/mL) | 21.5 (≈ 12.5 µg/mL) | 21.5 (≈ 12.5 µg/mL) |  |  |  |  |  |  |  |  |  | 
2 | COc1ccc(/C=C/C(=O)NCCCNCCCCNCCCNC(=O)/C=C/c2ccc(OC)cc2)cc1.O=C(O)C(F)(F)F.O=C(O)C(F)(F)F [Compound 14a, N^1,N^4-Bis(3-((E)-3-(4-methoxyphenyl)acrylamido)propyl)butane-1,4-diaminium 2,2,2-trifluoroacetate] | 33.3 | > 266 | 266 | > 42.6 | > 42.6 | > 42.6 | >42.6 | 16.6 | > 16 | 67 | 4 |  | 
3 | O=C(C=Cc1ccccc1)NCCCNCCCCNCCCNC(=O)C=Cc1ccccc1.O=C(O)C(F)(F)F.O=C(O)C(F)(F)F [Compound 13a, N^1,N^4-Bis(3-cinnamamidopropyl)butane-1,4-diaminium 2,2,2-trifluoroacetate] | 724 | 724 | 724 | > 46.3 | > 46.3 |  |  | 145 | 5 | 145 | 5 | > 46.3 | 
4 | CC/C(=C(\c1ccccc1)c1ccc(OCCN(C)C)cc1)c1ccccc1 [tamoxifen, reference compound] |  |  |  |  |  | 24 |  |  |  |  |  |  | 
5 | COc1ccc(/C=C/C(=O)NCCCNCCCCNCCCNC(=O)/C=C/c2ccc(OC)c(Br)c2)cc1Br.O=C(O)C(F)(F)F.O=C(O)C(F)(F)F [Compound 15a, N^1,N^4-Bis(3-((E)-3-(3-bromo-4-methoxyphenyl)acrylamido)propyl)butane-1,4-diaminium 2,2,2-trifluoroacetate] | 13.8 | > 220 | 55 | 2.2 | 17.6 | > 35.2 |  | 27.5 | > 8 | 13.7 | 4 | ≤ 0.28 | 
6 | COc1ccc(/C=C/C(=O)NCCCNCCCCCCCNCCCNC(=O)/C=C/c2ccc(OC)cc2)cc1.O=C(O)C(F)(F)F.O=C(O)C(F)(F)F [Compound 14c, N^1,N^7-Bis(3-((E)-3-(4-methoxyphenyl)acrylamido)propyl)heptane-1,7-diaminium 2,2,2-trifluoroacetate] | 31.5 | > 252 | 252 | 20.2 | > 40.4 | > 40.4 | >40.4 | 31.5 | > 8 | 126 | 2 |  | 
7 | COc1ccc(/C=C/C(=O)NCCCNCCCCCCCNCCCNC(=O)/C=C/c2ccc(OC)c(Br)c2)cc1Br.O=C(O)C(F)(F)F.O=C(O)C(F)(F)F [Compound 15c, N^1,N^7-Bis(3-((E)-3-(3-bromo-4-methoxyphenyl)acrylamido)propyl)heptane-1,7-diaminium 2,2,2-trifluoroacetate] | 6.57 | > 210 | 26 | ≤ 0.26 | 8.4 | > 33.7 |  | 26.3 | > 8 | 13.1 | 2 | ≤ 0.26 | 
8 | COc1ccc(/C=C/C(=O)NCCCNCCCCCCCCCCCCNCCCNC(=O)/C=C/c2ccc(OC)c(Br)c2)cc1Br.O=C(O)C(F)(F)F.O=C(O)C(F)(F)F [Compound 15f, N^1,N^12-Bis(3-((E)-3-(3-bromo-4-methoxyphenyl)acrylamido)propyl)dodecane-1,12-diaminium 2,2,2-trifluoroacetate] | 6.12 | > 196 | 6.12 | ≤ 0.24 |  | 1.12 | 1.17 | 49.0 | > 4 | 6.1 | 1 | ≤ 0.24 | 
9 | COc1ccc(/C=C/C(=O)NCCCNCCCCCCCCCCNCCCNC(=O)/C=C/c2ccc(OC)cc2)cc1.O=C(O)C(F)(F)F.O=C(O)C(F)(F)F [Compound 14e, N^1,N^10-Bis(3-((E)-3-(4-methoxyphenyl)acrylamido)propyl)decane-1,10-diaminium 2,2,2-trifluoroacetate] | 1.87 | 240 | 120 | ≤ 0.3 | 38.3 | 2.3 | >38.3 | 60 | 4 |  |  | ≤ 0.3 | 
10 | COc1ccc(/C=C/C(=O)NCCCNCCCCCCCCCCCCNCCCNC(=O)/C=C/c2ccc(OC)cc2)cc1.O=C(O)C(F)(F)F.O=C(O)C(F)(F)F [Compound 14f, N^1,N^12-Bis(3-((E)-3-(4-methoxyphenyl)acrylamido)propyl)dodecane-1,12-diaminium 2,2,2-trifluoroacetate] | 3.62 | 232 | 7.2 | ≤ 0.29 | > 37.1 | 24.3 |  | 7.24 | 32 | 3.62 | 2 |  | 7.24
11 | OC(Cn1cncn1)(Cn1cncn1)c1ccc(F)cc1F [fluconazole, reference compound] |  |  |  |  | 0.4 (≈ 0.123 µg/mL) |  |  |  |  |  |  | 26 (≈ 7.96 µg/mL) | 
12 | COc1ccc(/C=C/C(=O)NCCCNCCCCCCCCCCNCCCNC(=O)/C=C/c2ccc(OC)c(Br)c2)cc1Br.O=C(O)C(F)(F)F.O=C(O)C(F)(F)F [Compound 15e, N^1,N^10-Bis(3-((E)-3-(3-bromo-4-methoxyphenyl)acrylamido)propyl)decane-1,10-diaminium 2,2,2-trifluoroacetate] | 1.57 | 50.4 | 25.2 | ≤ 0.25 | 32.2 | > 32.2 | 24.1 | 50.4 | 1 |  |  | 1 | 
13 | COc1c(Br)cc(/C=C/C(=O)NCCCNCCCCCCCCCCNCCCNC(=O)/C=C/c2cc(Br)c(OC)c(Br)c2)cc1Br.O=C(O)C(F)(F)F.O=C(O)C(F)(F)F [Compound 16e, N^1,N^10-Bis(3-((E)-3-(3,5-dibromo-4-methoxyphenyl)acrylamido)propyl)decane-1,10-diaminium 2,2,2-trifluoroacetate] | 1.36 | 87 | 43.5 | ≤ 0.22 | 27.8 | 2 | 13.6 | 43.5 | 2 |  |  | ≤ 0.22 | 
